Data: patent US8530235B2, “Medium that supports culture of an oocyte and modulation of granulosa cell apoptosis” (Adelaide Research & Innovation Pty Ltd., priority 2005, dated 2013)

Legend:
[1] = system: activin receptor-like kinases (ALKs) 4, 5 and 7; conditions: competitive ATP binding site kinase inhibitor; without effecting ALKs 1, 2, 3 or 6 or other cellular kinases; cited from earlier work
cumulus-oocyte complexes = assay: Study IV: oocyte developmental competence after IVM, IVF and embryo culture; type: cell-based, Bovine
Method: Unless otherwise specified, all chemicals and reagents were purchased from Sigma (St Louis, Mo.). Bovine ovaries were collected from local abattoirs and transported to the laboratory in warm saline (30-35° C.). COCs were aspirated from antral follicles (3 to 5 mm diameter) using an 18-gauge needle and a 10-ml syringe containing ˜2 ml aspiration medium (Hepes-buffered. Tissue Cultured Medium-199; TCM-199. ICN Biochemicals, Irvine, Calif., USA) supplemented with 50 μg/ml kanamycin, 0.5 mM sodium pyruvate, 50 μg/ml heparin and 4 mg/ml fatty acid-free bovine serum albumin (FAF-BSA; ICPbio Ltd, Aukland, NZ). Intact COCs with compact cumulus vestments>˜5 cell layers and evenly pigmented cytoplasm were selected under a dissecting microscope and washed twice in Hepes-buffered TCM-199 and once in Hepes-buffered TCM-199 supplemented with 10% fetal calf serim (FCS) (Invitrogen, Carlsbad, Calif.). The basic medium for oocyte maturation was Bovine VitroMat (Cook Australia, Eight Mile Plains, Qld, Australia), a medium based on the ionic composition of bovine follicular fluid. […] Complexes were cultured in pre-equilibrated 300 ? l drops overlaid with mineral oil and incubated at 39° C. with 5% CO2 in humidified air for 24 hour. […]
Recombinant mouse GDF9 and recombinant ovine BMP15 were produced and partially purified in-house as previously described using transfected 293 human embryonic kidney cell lines (293H) originally donated by O. Ritvos (University of Helsinki). Control conditioned medium (hereafter designated ‘293H’) was produced from untransfected 293H cells and subjected to the same chromatography procedures as GDF9 and BMP15 conditioned media.
Consequently, SB-431542 potently antagonizes the ALK 4/5 ligands; TGF-β1, the activins and GDF9, without affecting BMP signalling (Inman et al., 2002; Gilchrist et al., 2006). […] Follistatin-288 was generously donated by S. Shimasaki (University of California San Diego, USA) and we have previously shown that this binding protein antagonizes the bioactivities of native OSFs and recombinant BMP15 in CCs.
In vitro production of embryos was undertaken using defined, serum-free media (Bovine Vitro series of media, Cook Australia). Frozen semen from a single bull of proven fertility was used in all experiments. Briefly, thawed semen was layered over a discontinuous (45%: 90%) Percoll gradient (Amersham Bioscience) and centrifuged (RT) for 20-25 mins at 700 g. The supernatant was removed and the sperm pellet was washed with 500 μl Bovine VitroWash (Cook Australia) and centrifuged for a further 5 minutes at 200 g. Spermatozoa were resuspended with IVF medium (Bovine VitroFert, Cook Australia), then added to the fertilization media drops (Bovine VitroFert, supplemented with 0.01 mM heparin, 0.2 mM penicillamine and 0.1 mM hypotaurine) at a final concentration of 1×106 spermatozoa/ml. COCs were inseminated at a density of 10 μl of IVF medium per COC for 24 h, at 39° C. in 6% CO2 in humidified air.
CCs were removed by gentle pipetting 23-24 h post insemination and five presumptive zygotes were transferred into 20 μl drops of pre-equilibrated Cook Bovine VitroCleave medium (Cook Australia) and cultured under mineral oil at 38.5° C. in 7% O2, 6% CO2, balance N2, for five days (day 1 to day 5).
On Day 5, embryos were transferred in groups of 5-6 to 20 μl drops of pre-equilibrated Bovine VitroBlast (Cook Australia) at 38.5° C. overlaid with mineral oil and cultured to Day 8. Embryos were assessed for quality at Day 8 according to the definitions presented in the Manual of the International Embryo Transfer Society (Stringfellow, 1998) and were performed independently and blinded by an experienced bovine embryologist.
Cell counts were performed using a modified version of the technique described by (Fouladi-Nashta et al., 2005). […]

mural granulosa cells = assay: Mural granulosa cell DNA synthesis, 3H-thymidine incorporation; type: cell-based, marmoset monkey, Callithrix jacchus; conditions: GC from large antral follicles
Method: Mural GC from large antral follicles were cultured for 24h and thymidine incorporation was stimulated with 175 ng/ml GDF9. […] Bars/points represent means+/−SEM from 3 replicate experiments expressed as a fold change relative to control.
Follicles were manually excised and separated into 3 size classes: periantral (PA; 0.42-0.66 mm), small antral (SA; 0.66-1.5 mm) and large antral (LA; >1.5 mm). GCs from each follicle size were collected and pooled, then washed twice in bicarbonate-buffered tissue culture medium-199 (B-TCM) supplemented with 0.3 mg/ml of polyvinyl alcohol (PVA, Sigma). Depending on the individual experiments, mural GCs (1×10^5 cells/ml), hormones, inhibitors and media were added to wells of 96-well plates (Falcon) to give a final volume of 125 μl. Within each experiment, all treatments were carried out in at least duplicate wells and each experiment was replicated on at least 3 occasions. Cells were cultured in an atmosphere of 37° C., 96% humidity in 5% CO2 in air for 18 hours, followed by a further 6 hour pulse of 15.4 kBq tritiated thymidine (3H-thymidine, ICN) under the same conditions.
Seven adult female marmosets were primed with […] for 6 days, whole ovaries were removed on day 7, follicles manually excised, and GC were then collected from 3 size classes: periantral (PA; 0.42-0.66 mm), small antral (SA; 0.66-1.5 mm) and large antral (LA; >1.5 mm). Four different approaches were utilized to examine GDF9 function in GC. […] To examine the GDF9 signalling pathway, cultured GC from LA follicles were transfected with either a CAGA-luciferase or BRE-luciferase reporter construct and treated with various TGF-β superfamily growth factors or co-cultured with mouse oocytes. In order to determine the effects of GDF9 on marmoset GC proliferation, we employed a GC bioassay whereby after 24 h ^3H-thymidine incorporation is assessed as an indicator of DNA synthesis and cellular proliferation. […] In another experiment, GC were treated with an increasing dose of SB431542, an activin-like kinase (ALK) 4/5/7 inhibitor, in the presence of GDF9+/−IGF1.

For NC(=O)c1ccc(-c2nc(-c3ccc4c(c3)OCO4)c(-c3ccccn3)[nH]2)cc1 [SB-431542, reference compound], the kinase selectivity [1] is given as “specifically antagonizing the activities of activin receptor-like kinases (ALKs) 4, 5 and 7”, the “blastocyst development of control COCs treated with antagonist” value (cumulus-oocyte complexes; 4 μM SB-431542 or 10 μg/ml follistatin-288, compared to untreated COCs) is given as “significantly (P<0.05) decreased” and the “effect on cleavage rate” value (cumulus-oocyte complexes; Experiments 3 & 4, 4 μM SB-431542, 175 ng/ml GDF9, 10% v/v BMP15, 10% v/v 293H) is given as “no influence”. The “increase of blastocyst yields by GDF9 or BMP15 on addition of the respective antagonist” value (cumulus-oocyte complexes; SB-431542 against GDF9, follistatin against BMP15) was “ablated”, the “DNA synthesis stimulated by GDF9 in the presence of inhibitor” value (mural granulosa cells; 175 ng/ml GDF9, 24 h) was “dose-dependently inhibited” and the “stimulatory effects of GDF9 on DNA synthesis at 1 μM inhibitor” value (mural granulosa cells; 1 μM) was “completely eliminate”.
